Laboratory results: US20100216886A1, “POLYMORPHS OF N2-(1,1'-BIPHENYL-4-YLCARBONYL)-N1-[2-(4-FLUOROPHENYL)-1,1-DIMETHYLETHYL]-L-ALPHA-GLUTAMINE” (Wyeth, priority 2006, published 2010)

Columns and labels:
CACO-2 = conditions: human, Caco-2, pH 7.4
in vitro = conditions: human, Caco-2, pH 7.4

Compound: C[C@H]1O[C@@H](O[C@H]2[C@@H](O)C[C@H](O[C@H]3[C@@H](O)C[C@H](O[C@H]4CC[C@@]5(C)[C@H](CC[C@@H]6[C@@H]5C[C@@H](O)[C@]5(C)[C@@H](C7=CC(=O)OC7)CC[C@]65O)C4)O[C@@H]3C)O[C@@H]2C)C[C@H](O)[C@@H]1O [DigoxinS]
- % Recovery (CACO-2): 117%
- Papp A→B (in vitro): 2.06 ×10⁻⁶ cm/s
- Papp B→A (in vitro): 29.4 ×10⁻⁶ cm/s
